The test has as its system Cryptococcus neoformans. As to the kind of experiment: Antifungal activity against Cryptococcus neoformans H99 infected in CBA/J mouse assessed as increase in survival at 1.2 mg/kg, ip. In kind it is functional, organism-based. To be noted: var grubii H99.

Active and inactive are the calls of the source. No cut-off for these calls is given here.

Regarding `OC(Cn1cncn1)(Cn1cncn1)c1ccc(F)cc1F`, the result was Active. In the case of `O=C(N/N=C/c1cc(Br)cc(Br)c1O)c1ccc(Br)cc1`, the outcome was Active.

The values are drawn from ChEMBL document CHEMBL4334465, “SAR Studies on Aromatic Acylhydrazone-Based Inhibitors of Fungal Sphingolipid Synthesis as Next-Generation Antifungal Agents” (J Med Chem, 2019).
